Reference: patent US20110082197A1, “Method for inhibiting formation and/or activation of osteoclasts using flemingia macrophylla extract or lespedeza flavanone A” (CHINA MEDICAL UNIVERSITY, priority 2009, published 2011)

How the values were obtained:
osteoclast precursors = experiment: Differentiation test of osteoclasts (RANKL/M-CSF induced, TRAP staining); format: cell-based, Wistar rats; details: for effect of ICI 182,780 on the inhibition of osteoclast formation: 1 nM ICI 182,780 (antagonist of estrogen receptors), result in words
Description: Bone marrow was taken out from the femurs and tibiae of Wistar rats, and bone marrow cavities were washed with a α-minimum essential medium (Hyclone, Logan, Utah, USA) comprising a 20 mmol HEPES buffer solution, 10 vol % heat-inactivated fetal bovine serum, 2 mmol glutamine, 100 U/ml penicillin, and 100 µg/ml streptomycin. After 24 hours, inadhesive hematopoietic cells that were washed were collected, and were used as osteoclast precursors.
The aforesaid precursor cells were incubated in 24-wells culture plates with a density of 1×10^6 cells/well, and the culture plates comprised soluble human recombinant RANKL (50 ng/ml, PeproTech EC, London, UK) and M-CSF (20 ng/ml, PeproTech EC). Under the induction of M-CSF and RANKL, the precursor cells may differentiate into osteoclasts.
Then, various concentrations of the Flemingia macrophylla extract or Lespedeza flavanone A were added into the culture plates, and culture medium was replaced once every 3 days. On the ninth day, osteoclasts were stained with a TRAP staining kit, and the formation of osteoclasts was observed. The cells were then fixed with 10 vol % formaldehyde (in a phosphate buffer solution) for three minutes, and were stained with Naphthol AS-Mx phosphate and a tartaric acid solution at 37° C. for 1 hour. TRAP-positive multinucleated osteoclasts with more than three nuclei were regarded as osteoclasts (see Asagiri et al., The molecular understanding of osteoclast differentiation, Bone, 2007, 40: 251-64, which is entirely incorporated hereinto by reference).
To clarify the mechanism of Lespedeza flavanone A, an experiment was carried out with 1 nM ICI 182,780 (an antagonist of estrogen receptors) (see Howell et al., ICI 182,780 (Faslodex): development of a novel, “pure” antiestrogen, Cancer, 2000, 89: 817-825, which is entirely incorporated hereinto by reference), and influence of ICI 182,780 on the formation of osteoclasts was observed, and 10 nM 17β-estradiol was used for comparison.

OVX rats [1] = experiment: Body weight and vagina weight of ovariectomized rats after 13 weeks of oral administration; format: in vivo, Wistar rats; details: alendronate 2.5 mg/kg-body weight per day
Description: (§1) Female Wistar rats (BioLASCO, Taipei, Taiwan) were used in the following experiments. In an experiment group, the rats were anesthetized with 40 mg/kg-body weight of pentobarbital sodium, and ovaries in both sides of the dorsum of the rats were removed to induce osteoporosis, and a decrease in estrogen of the postmenopausal female rats was observed. The rats of which ovaries were removed (i.e., ovariectomized rat) are represented as “OVX rats” hereinafter. In the control group (i.e., a sham group), the skin and muscle on the ovary positions at both sides of the dorsum of the rats were incised and then sutured, while the ovaries were not removed.
(§2) After one week from the surgery, the control group was administrated water orally every day. […] During the administration, the body weight of each rat was measured once a week until the last day of the administration. Distilled water was added into the extract to form a suspension, and the rats were administrated orally with 1 ml/100 g-body weight of the suspension.
After the end of the administration in Example 2, the rats were anesthetized with a high dosage of pentobarbital sodium (65 mg/kg-body weight) and were sacrificed. Blood samples of the rats were then collected, and tibiae and vertebrae of the rats were dissected, and vaginas were taken out from the rats and the weight of the vaginas was measured.

OVX rats [2] = experiment: Density and content of minerals in tibiae (dual-energy X-ray absorptiometer); format: in vivo, Wistar rats; details: oral, alendronate 2.5 mg/kg-body weight per day, 13 weeks
Description: Female Wistar rats (BioLASCO, Taipei, Taiwan) were used in the following experiments. […] The rats of which ovaries were removed (i.e., ovariectomized rat) are represented as “OVX rats” hereinafter. In the control group (i.e., a sham group), the skin and muscle on the ovary positions at both sides of the dorsum of the rats were incised and then sutured, while the ovaries were not removed.

OVX rats [3] = experiment: Weight ratio of bone ash and calcium content of fifth vertebra; format: in vivo, Wistar rats; details: bone ash, per bone volume, oral, alendronate 2.5 mg/kg-body weight per day, 13 weeks
Description: as §1, §2
The fifth sections of the vertebrae of the rats in Example 3 were dissected in an ethanol bath and dried at 100° C. overnight, and the dry weight of the vertebrae was measured. […] After the cremation, bone ash was collected, and the weight ratio of the bone ash (represented as the percentage of the dry weight of the vertebrae) was measured. […]

OVX rats [4] = experiment: Tissue analysis of tibiae (H&E, TRAP staining); format: in vivo, Wistar rats; details: oral, alendronate 2.5 mg/kg-body weight per day, 13 weeks
Description: as §1, §2
The left tibiae of the rats in Example 3 were taken and fixed with 4 vol % metaformaldehyde (in a phosphate buffer solution, PBS, pH 7.4) for 48 hours, and calcium was removed in a solution (pH 7.4) of 10 wt % EDTA (ethylenediamine tetraacetic acid) at 4° C. for 4 weeks. After calcium was removed, the bones were cut to generate a cross-section, and tissue staining was carried out with hematoxylin and eosin. […] The microscope images were analyzed with a color image analysis system (Image-Pro Plus version 5.1, Media Cybernetics, Maryland, USA), and the volume of trabecular bones and the thickness of […] of metaphysis of the rats were measured. […]
In another aspect, the above cross-section was stained with a TRAP (tartrate-resistant acid phosphatase) kit (Sigma-Aldrich, St. Louis, Mo., USA), and the number of osteoclasts was measured (see Cole et al., Tartrate-resistant acid phosphatase in bone and cartilage following decalcification and cold-embedding in plastic. J Histochem Cyrochem, 1987: 35, 203-6, which is entirely incorporated hereinto by reference).

OVX rats [5] = experiment: Biochemical values of blood and urine (ALP, calcium, DPD); format: in vivo, Wistar rats; details: oral, alendronate 2.5 mg/kg-body weight per day, 13 weeks
Description: as §1, §2
The activity of ALP (alkaline phosphatase) and the content of calcium and creatinine in the blood and urine of the rats were measured with a clinical trial kit (Roche Diagnostics, Mannheim, Germany) and a spectrophotometric analyzer (Cobas Mira Plus, Roche, Rotkreuz, Switzerland), and the calcium content in the urine and blood of the rats was also measured with a method using o-cresolphthalein complexone (Randox, UK). ALP is a bio-indicator or molecular marker of an early activation stage of preosteoblasts, and based on ALP activity, the activation situation of preosteoblasts can be observed. The calcium content in the urine is represented as “mg/mmol creatinine in the urine.”
Moreover, the content of deoxypyridinoline (DPD) in the urine was measured with ELISA (enzyme linked immunosorbent assay) (an ELISA kit is purchased from Metra, San Diego, Calif., USA), and is represented as “[…] creatinine in the urine.” The results are shown in Table 5. […]

Structure (SMILES)	effect of ICI 182,780 on the inhibition of osteoclast formation (osteoclast precursors)	the percentage of osteoclast formation (osteoclast precursors; 10.0 nM with ICI 182,780 (1 nM), day 9)	the percentage of osteoclast formation (osteoclast precursors; 10.0 nM, day 9, control = 100)	the percentage of osteoclast formation (osteoclast precursors; 0.1 μM with ICI 182,780 (1 nM), day 9)	the percentage of osteoclast formation (osteoclast precursors; 0.1 μM, day 9, control = 100)	the percentage of osteoclast formation (osteoclast precursors; 1.0 μM with ICI 182,780 (1 nM), day 9)	the percentage of osteoclast formation (osteoclast precursors; 1.0 μM, day 9, control = 100)	the percentage of osteoclast formation (osteoclast precursors; 10.0 μM with ICI 182,780 (1 nM), day 9)	the percentage of osteoclast formation (osteoclast precursors; 10.0 μM, day 9, control = 100)	average body weight after 13 weeks from the surgery (OVX rats [1])	average vagina weight (OVX rats [1])	mineral content (OVX rats [2])	calcium content (OVX rats [3])	osteoclast number/bone surface (OVX rats [4]; TRAP staining, tibia)	thickness of dermal bones (OVX rats [4]; tibia metaphysis)	trabecular bone volume/tissue volume (OVX rats [4]; tibia metaphysis)	DPD content in urine (OVX rats [5]; ELISA)	ALP (OVX rats [5]; blood serum)	calcium content in urine (OVX rats [5])
C[C@]12CC[C@@H]3c4ccc(O)cc4CC[C@H]3[C@@H]1CC[C@@H]2O [17β-estradiol]	clearly inhibited the inhibition effect	83.0 ± 13.2 %	57.7 ± 8.1 %																
COc1ccc([C@@H]2CC(=O)c3c(O)c(CC=C(C)C)c(O)c(CC=C(C)C)c3O2)c(O)c1 [LDF-A, 5,7,2-trihydroxy-6,8-di-r,r-dimethylallyl-4-methoxyflavanone]	did not inhibit the inhibition effect			65.0 ± 11.5%	70.7 ± 9.5 %	49.0 ± 6.2%	60.0 ± 5.2 %	26.0 ± 8.9%	27.0 ± 2.6 %										
NCCCC(O)(P(=O)(O)O)P(=O)(O)O [alendronate]										377.8 ± 36.5 g	0.18 ± 0.01 g	0.38 ± 0.01 g	206.1 ± 24.2 mg/mL	2.7 ± 0.4 mm	215.0 ± 10.2 μm	36.1 ± 1.1 %	281.2 ± 52.3 mg/mmol creatinine	163.5 ± 24.0 U/L	45.2 ± 14.8 mg/mmol creatinine
